Experimental data published in PubChem BioAssay AID2005 (Sanford-Burnham Center for Chemical Genomics, 2009).
The source made the active and inactive calls.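 How the source made its calls: active means plate Z score at or below -3, or inhibition of at least 30% at 20 µM; inactive means the rest.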

Experiment: compounds lowering EGFP fluorescence in F442A cells, dose response, counter-screen for p/CIP destabilizer project (AID 2005);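 further: cells express EGFP alone from a CMV promoter as a counter screen for p/CIP-EGFP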
Details: F442A EGFP cells, EGFP fluorescence, 16 h, stronger effect = higher value

Structure (SMILES) | inhibition (EGFP decrease, at 10 µM) [%] | inhibition (at 20 µM)
CCc1ccc(NC(=O)CCn2c(=O)oc3ccccc32)cc1 | 11.9 | 3.3% (inactive)
NC(=O)COC(=O)CSc1cccc2cccc(Cl)c12 | 24 | 10.6% (inactive)
COc1ccc(/C=C/C2=NN(Cc3ccccc3)C(=O)CC2)cc1 | 28.1 | 18.7% (inactive)
Cc1ccc(/C=C/C(=O)c2ccc(N3CCOCC3)cc2)s1 | 8.3 | -1.4% (inactive)
CCCc1nc(NCC2CCCO2)c2nnn(Cc3ccccc3)c2n1 (stereo unspecified) | 39 | 12.1% (inactive)
COc1cc2c(cc1OC)/C(=C/C#N)NC(C)(C)C2 | 6.8 | 8% (inactive)
CC(=O)c1ccc2c(c1)OCO2 | 5.1 | 25.1% (inactive)
N#CCSCC(=O)Nc1ccc(F)cc1 | 4.7 | 4% (inactive)
CCOC(=O)c1c(C)oc2c(F)c(F)c(F)c(F)c2c1=O | 32.1 | 19.8% (inactive)
COc1cccc(CNC(=O)C2CCN(c3cnccn3)CC2)c1 | -0.8 | 8.6% (inactive)
O=C(NC(=S)NCCc1ccccc1)c1ccco1 | 9.7 | -5.7% (inactive)
COC(=O)c1c(NC(=O)c2ccc(C)cc2)sc(Cc2ccccc2)c1C | 29.9 | -2.4% (inactive)
O=C(O)c1cccc(NC(=O)C2C3C=CC(C3)C2C(=O)O)c1 (stereo unspecified) | 17.4 | 18% (inactive)
O[C@@H](CNC[C@H](O)c1ccccc1)c1ccccc1 | 28 | -10.9% (inactive)
Cn1nc(-c2ccccn2)nc2c(=O)n(C)c(=O)nc1-2 | 61.5 | 45.6%
O=C(c1ccccc1F)N(Cc1cccnc1)Cc1cc2cc3c(cc2[nH]c1=O)OCCO3 | 4.2 | -4.2% (inactive)
CC(C)c1csc(CN2CCCC(CNC(=O)c3cccc4ccccc34)C2)n1 (stereo unspecified) | 15 | 4.5% (inactive)
CSCCC(CO)NC(=O)OCc1ccccc1 (stereo unspecified) | 10.8 | -23.3% (inactive)
Fc1ccc(CNCCc2ccccc2)cc1 | 21.5 | -9.1% (inactive)
O=c1cc(O)c2c(=O)n(C3CCCCC3)c3ccccc3c2o1 | 2.1 | 4.6% (inactive)

Structure (SMILES) | inhibition (EGFP decrease, at 10 µM) [%] | inhibition (at 20 µM)
CCNc1nc(C)c2cc(Br)c(=O)n(CC)c2n1 | 18.2 | 4.8% (inactive)
COc1cccc(-c2nc(CS(=O)CC(=O)NCc3ccccc3)c(C)o2)c1 (stereo unspecified) | 19.6 | -13.3% (inactive)
Cc1ccc(S(=O)(=O)NCC(C)NS(=O)(=O)c2ccc(C)cc2)cc1 (stereo unspecified) | 34.7 | -7.7% (inactive)
CN=Cc1sc2ccccc2c1O | 26.9 | 29.7% (inactive)
CCOC(=O)CCc1c(C)c2ccc(OCC(=O)N(CC)CC)c(C)c2oc1=O | 19.9 | 8.8% (inactive)
COC(=O)c1cccc(C23CC4(C2)[C@H](CN(C)[C@@H]4c2ccccc2)C3c2ccc(C(F)(F)F)cc2)c1 (stereo partly specified) | 8 | 8.1% (inactive)
O=C(c1ccc(F)cc1)C1CCN(C(=O)c2c(F)cccc2F)CC1 | 12.9 | 13.5% (inactive)
Cc1cc(C(=O)Nc2cccc(O)c2)c(C)o1 | 7.4 | -9.8% (inactive)
CCOC(=O)c1c(C)n(C)c2cc(OCCN(CC)CC)ccc12 | -6 | 8.6% (inactive)
Cc1cc(C)n(CC(O)COc2ccc(C(C)(C)C)cc2)n1 (stereo unspecified) | -4.8 | 7.7% (inactive)
Cn1c(C(=O)NCc2cccnc2)cc2sc(Cl)cc21 | 28.8 | 32.9%
CN1CCN(C(=O)c2cccc(S(=O)(=O)N3CCCCC3)c2)CC1 | 10.5 | 20.5% (inactive)
Cc1nc2c(=O)n(C)c(=O)nc-2n(C)n1 | 54.2 | 34.4%
Cc1ccccc1CN1CCC(CNC(=O)Nc2ccc(F)cc2F)CC1 | 25.1 | 20.2% (inactive)
CC(=O)N1[C@H](Cc2ccccc2)C=C[C@]1(C)C(=O)NCc1ccccn1 | -7.6 | 8.7% (inactive)
Cn1cc(/C=C(\C(=O)O)C(C(=O)O)=C2CCCCC2)c2ccccc21 | 13.9 | 17.2% (inactive)
CC(C)CC(=O)Nc1ncnc2c1C(=O)CC(C)(C)C2 | 11.5 | 12.2% (inactive)
CCN(Cc1nc2ccccc2c(=O)[nH]1)Cc1nc2ccsc2c(=O)[nH]1 | 26.2 | 22.6% (inactive)
CC(=O)NCCNC(=O)c1ccc(CSc2nc3ccccc3s2)cc1 | 15.9 | 16.6% (inactive)
Cc1ccc(S(=O)(=O)Nc2cccc(-c3cn4ccsc4n3)c2)cc1 | 31 | 10.2% (inactive)

Structure (SMILES) | inhibition (EGFP decrease, at 10 µM) [%] | inhibition (at 20 µM)
O=C(NCC1CCCO1)C1CCCCN1S(=O)(=O)c1ccc(F)cc1 (stereo unspecified) | -13.3 | 9.4% (inactive)
Cc1ccc(NC2=NC3(CCCCC3)N=C(N)N2)c(C)c1 | 32.9 | 41.8%
N/C(Cc1ccc([N+](=O)[O-])cc1)=N\OC(=O)COc1ccc2ccccc2c1 | 7 | -7.4% (inactive)
COC(=O)[C@@H](Cc1c[nH]c2ccccc12)NC(=O)C1CCCN(S(=O)(=O)c2ccc(C)cc2)C1 (stereo partly specified) | -7.3 | 19.7% (inactive)
CCCCn1c(SCC(=O)NCc2ccco2)nc2c(sc3ccccc32)c1=O | 20.5 | 13.2% (inactive)
CCOc1ccccc1OCc1nn2c(-c3ccc(C)cc3)nnc2s1 | -2 | -2.8% (inactive)
O=C(NCc1ccncc1)c1cc(C(=O)C2CCCCC2)c[nH]1 | -25 | 31.5%
CC(=O)c1cccc(OCc2cc(C(=O)N3CC4C[C@@H]5CC3C[C@H](C4)C5)no2)c1 | 37.1 | 27% (inactive)
COc1cccc2cc(C(C)=O)c(=O)oc12 | 33.2 | 24.2% (inactive)
COc1ccc([N+](=O)[O-])cc1NC(=O)c1cccs1 | 18.4 | 8.7% (inactive)
COC(=O)c1ccc(NC(=O)CCCCCn2nnc3ccccc3c2=O)cc1 | 5.4 | -4% (inactive)
COC(=O)c1[nH]c2c(c1C)C(=O)CC(c1cccs1)C2 (stereo unspecified) | 16.8 | -4.5% (inactive)
CCOc1ccc(CC(=O)Nc2ccc(S(=O)(=O)Nc3cc(C)on3)cc2)cc1OCC | 7.6 | 10.1% (inactive)
O=C(Nc1nc2nc(-c3ccccc3)cc(-c3ccccc3)n2n1)c1ccco1 | 4.8 | 5.5% (inactive)
CN(C)c1ccc(C(=O)Nc2cc(C(F)(F)F)ccc2-n2cncn2)cc1 | 5 | 10.4% (inactive)
Cc1nn(CC(=O)NCCN2CCCCC2C)c(=O)c2cc(-c3ccccc3)nn12 (stereo unspecified) | 17.6 | 1.6% (inactive)
COc1ccc(Cl)c(NC(=O)Nc2c(C)n(-c3ccccc3)c(=O)n2C)c1 | 8.4 | 26.9% (inactive)
CC(=O)Nc1ccc(S(=O)(=O)Nc2nccs2)cc1 | 21.2 | 15.6% (inactive)
